Assay results: PubChem BioAssay (NCI)
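Five concentrations, 48 hours, 96-well plates. Definition used: TGI = concentration required for complete inhibition of growth.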

Columns and labels:
Assay in all cases: DTP human tumour cell line panel, 48 h
NCI-H23 lung = tested on: NCI-H23 lung
HT29 colon = tested on: HT29 colon
SNB-19 CNS = tested on: SNB-19 CNS
UACC-62 melanoma = tested on: UACC-62 melanoma
SF-295 CNS = tested on: SF-295 CNS
SK-MEL-2 melanoma = tested on: SK-MEL-2 melanoma
HL-60(TB) leukemia = tested on: HL-60(TB) leukemia
NCI-H460 lung = tested on: NCI-H460 lung
COLO 205 colon = tested on: COLO 205 colon
U251 CNS = tested on: U251 CNS
SW-620 colon = tested on: SW-620 colon
A549 NSCLC = tested on: A549 NSCLC
RPMI-8226 leukemia = tested on: RPMI-8226 leukemia
HCT-15 colon = tested on: HCT-15 colon
RXF 393 renal = tested on: RXF 393 renal
OVCAR-3 ovarian = tested on: OVCAR-3 ovarian
UACC-257 melanoma = tested on: UACC-257 melanoma
DU-145 prostate = tested on: DU-145 prostate
HOP-92 NSCLC = tested on: HOP-92 NSCLC

Row | SMILES | TGI (NCI-H23 lung) [µM] | TGI (HT29 colon) [µM] | TGI (SNB-19 CNS) [µM] | TGI (UACC-62 melanoma) [µM] | TGI (SF-295 CNS) [µM] | TGI (SK-MEL-2 melanoma) [µM] | TGI (HL-60(TB) leukemia) [µM] | TGI (NCI-H460 lung) [µM] | TGI (COLO 205 colon) [µM] | TGI (U251 CNS) [µM] | TGI (SW-620 colon) [µM] | TGI (A549 NSCLC) [µM] | TGI (RPMI-8226 leukemia) [µM] | TGI (HCT-15 colon) [µM] | TGI (RXF 393 renal) [µM] | TGI (OVCAR-3 ovarian) [µM] | TGI (UACC-257 melanoma) [µM] | TGI (DU-145 prostate) [µM] | TGI (HOP-92 NSCLC) [µM]
1 | O=C(O)CC(NC(=O)/C(=C/c1ccccc1)NC(=O)c1ccccc1)C(=O)O (configuration not stated) | > 100 | > 100 | > 100 | > 100 | > 100 | > 100 | > 100 | > 100 | > 100 | > 100 | > 100 | > 100 | > 100 | > 100 | > 100 | > 100 | > 100 | > 100 | > 100
2 | CCC/C(Cl)=N/OC(=O)Nc1cc(C(F)(F)F)ccc1OC | 37.2 | 44.1 | 31.5 | 28.8 | 32.3 | 31.5 | > 100 | 36.5 | 3.45 | 31.6 | 11.4 | 34.6 | 6.05 | 16.6 | 18.3 | 30.3 | 30.9 | 30 | 6.56
3 | CCOC(=O)C1(C#N)C(=O)c2cc[n+](CC[n+]3ccc4c(c3)C(=O)C(C#N)(C(=O)OCC)C4=O)cc2C1=O (configuration not stated) | > 100 | > 100 | > 100 | > 100 | > 100 | > 100 | > 100 | > 100 |  | > 100 | > 100 | > 100 | > 100 | > 100 | > 100 | > 100 | > 100 | > 100 | > 100
4 | CC(=O)Nc1cccc(N2C(=O)/C(=C\c3cccc(Oc4ccccc4)c3)S(=O)(=O)C2c2ccccc2)c1 (configuration not stated) | > 100 | > 100 | > 100 | > 100 | > 100 | > 100 | 50.4 | > 100 | > 100 | > 100 | > 100 | > 100 | > 100 | > 100 | > 100 | > 100 | > 100 | > 100 | > 100
5 | CC(C)(C)C1CCC2c3c([nH]c4ccccc34)C3C(=O)N(c4ccccc4Cl)C(=O)C3C2C1 (configuration not stated) | 62.7 | 28.4 | > 100 | 45.4 | 57.2 | 35 | 50.5 | 15.8 |  | 50.6 | 22.7 | 86.5 | > 100 | 31.6 | 33.3 | 47.3 | > 100 | 42.7 | 0.739
6 | CC(=O)NC(Cc1ccccc1)NC(=O)O (configuration not stated) | > 100 | > 100 | > 100 | > 100 | > 100 | > 100 | > 100 | > 100 | > 100 | > 100 | > 100 | > 100 | > 100 | > 100 | > 100 | > 100 | > 100 | > 100 | > 100
